This note sets out measurements from ChEMBL document CHEMBL1201862, “PubChem BioAssay data set” (2004).

Some test systems named below: CCRF-CEM; COLO 205; DU-145; HCT-15; IGROV-1; LOX IMVI; MCF7; NCI-H23; NCI-H460; NCI-H522; PC-3; SK-MEL-2; SK-MEL-5; SN12C; SNB-19; SR; TK-10; U-251; UACC-257; NCI-H226.
Experiment in all cases: DTP human tumour cell line panel, 48 h

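Results reflect a 48-hour exposure of cells in 96-well plates to compound at five concentrations. GI50 is the concentration that inhibits growth by half.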 Activity calls are given as the source filed them. No stated cut-off is given here; in the data, active = GI50 up to about 1.1 µM and inactive = higher.

Turning to `c1ccc(NCCSc2nc3ccccc3s2)cc1`, the GI50 (as a rule, the concentration at which growth is held to half of that of the control) in the assay on CCRF-CEM is 14.8 µM (inactive); with COLO 205, 22.4 µM (inactive); in the assay with DU-145, 97.1 µM (inactive); with HCT-15, 18 µM; with IGROV-1, > 100 µM (inactive); with LOX IMVI, 45.5 µM (inactive). Further, the GI50 was 25.8 µM (inactive) in the assay on MCF7; 29 µM (inactive) with NCI-H23; 30.9 µM (inactive) with NCI-H460; 37.2 µM (inactive) in the assay with NCI-H522; 55.2 µM (inactive) with PC-3; 30.8 µM (inactive) in the assay on SK-MEL-2. Besides, the GI50 is 21.5 µM (inactive) in the assay with SK-MEL-5; 46.1 µM (inactive) with SN12C; > 100 µM (inactive) in the assay with SNB-19; 39.7 µM (inactive) with SR; 23.6 µM (inactive) in the assay with TK-10; 52.8 µM (inactive) in the assay on U-251. Further, the GI50 in the assay on UACC-257 is 22.1 µM (inactive).

Take `Cc1ccc(S(=O)(=O)NNC(=O)Nc2ccc(Cl)cc2)cc1`: the GI50 is > 100 µM (inactive) in the assay with CCRF-CEM; > 100 µM (inactive) with COLO 205; > 100 µM (inactive) in the assay with DU-145; above 100 µM with HCT-15; > 100 µM (inactive) in the assay on IGROV-1; > 100 µM (inactive) in the assay with MCF7. The GI50 with NCI-H226, in the assay on NCI-H23, in the assay with NCI-H460, in the assay on NCI-H522, with PC-3 and in the assay on SK-MEL-2 was > 100 µM (inactive) in each case. Also, the GI50 in the assay on SK-MEL-5 is 53 µM (inactive); with SN12C, > 100 µM (inactive); with SNB-19, > 100 µM (inactive); in the assay on SR, > 100 µM (inactive); in the assay with TK-10, > 100 µM (inactive); in the assay with U-251, > 100 µM (inactive). Moreover, in the assay on UACC-257, the GI50 is > 100 µM (inactive).

As for `C/C(=N\NC(=S)NCCNC(=S)N/N=C(\C)c1ccccn1)c1ccccn1`, the GI50 is 1.28 µM (inactive) in the assay with CCRF-CEM; 2.09 µM (inactive) in the assay on COLO 205; 2.32 µM (inactive) in the assay with DU-145; 1.84 µM in the assay with HCT-15; 2.07 µM (inactive) with IGROV-1; 1.89 µM (inactive) in the assay on LOX IMVI. The GI50 in the assay with MCF7 was 4.39 µM (inactive); in the assay on NCI-H23, 4.41 µM (inactive); with NCI-H460, 1.61 µM (inactive); in the assay with NCI-H522 it was 6.04 µM (inactive); in the assay with PC-3, 3.07 µM (inactive); with SK-MEL-2 it was 1.82 µM (inactive). Moreover, the GI50 with SK-MEL-5 was 1.74 µM (inactive); in the assay on SN12C, 1.94 µM (inactive); in the assay with SNB-19 it was 9.46 µM (inactive); in the assay with SR, 0.514 µM (active); in the assay on TK-10, 1.04 µM (active); with U-251, 2.43 µM (inactive). Further, the GI50 in the assay on UACC-257 is 2.61 µM (inactive).

On to `COC1/C=C/C(C)C(C(C)C(OC)C(C)CCC(=O)C(C)C(CC(=O)O)OC)OC(=O)/C=C/C=C(\C)CC(OC)CC2=CC(=O)O[C@H](C2)C(C)C(OC)CC(OC)/C=C/C(C)C(OC)C1` (some centres not stated), for which the GI50 was 0.191 µM (active) in the assay on CCRF-CEM; 0.0977 µM (active) with COLO 205; 0.548 µM (active) in the assay with DU-145; 0.885 µM with HCT-15; 0.0783 µM (active) in the assay with IGROV-1; 0.439 µM (active) in the assay with MCF7. In addition, the GI50 in the assay with NCI-H226 was 0.543 µM (active); with NCI-H23, 0.879 µM (active); in the assay on NCI-H460 it was 0.195 µM (active); in the assay on NCI-H522, 0.0259 µM (active); in the assay on PC-3, 0.38 µM (active); with SK-MEL-2, 0.265 µM (active). Moreover, the GI50 with SK-MEL-5 is 0.455 µM (active); in the assay with SN12C, 2.96 µM (inactive); in the assay with SNB-19 it was 0.441 µM (active); with SR, 0.385 µM (active); in the assay with TK-10, 0.433 µM (active); in the assay with U-251 it was 0.195 µM (active). In addition, the GI50 in the assay on UACC-257 is 0.449 µM (active).

In the case of `CCOC(=O)/C(=N\Nc1ccc(-n2c(C)nc3ccccc3c2=O)cc1)C(C)=O`, the GI50 was 40.3 µM (inactive) with CCRF-CEM; 39.9 µM (inactive) with COLO 205; 80.2 µM (inactive) with DU-145; 37.7 µM with HCT-15; 22.9 µM (inactive) in the assay with IGROV-1; 32.1 µM (inactive) in the assay with LOX IMVI. For the same molecule, the GI50 in the assay on MCF7 is 37.7 µM (inactive); in the assay on NCI-H226, 18.7 µM (inactive); with NCI-H23 it was 50.5 µM (inactive); in the assay on NCI-H460, 92.9 µM (inactive); in the assay on PC-3, 34.8 µM (inactive); with SK-MEL-2, 54.5 µM (inactive). The GI50 in the assay with SK-MEL-5 is 2.25 µM (inactive); in the assay on SN12C, > 100 µM (inactive); with SNB-19, > 100 µM (inactive); in the assay on SR it was 33.3 µM (inactive); in the assay on TK-10, 20.9 µM (inactive); in the assay with U-251 it was > 100 µM (inactive). In addition, the GI50 in the assay with UACC-257 was 26.4 µM (inactive).

For `CN(C(=O)Cc1cccc(N=C=S)c1)[C@H]1CCCC[C@@H]1N1CCCC1`, the GI50 in the assay on CCRF-CEM is 12.5 µM (inactive); in the assay with COLO 205, 11.8 µM (inactive); with DU-145, 14.6 µM (inactive); with HCT-15, 14.5 µM; in the assay on IGROV-1, 13.9 µM (inactive); in the assay with LOX IMVI it was 14.5 µM (inactive). The GI50 with MCF7 is 13 µM (inactive); in the assay with NCI-H23, 14.2 µM (inactive); in the assay on NCI-H460 it was 16.7 µM (inactive); with NCI-H522 it was 12.9 µM (inactive); with PC-3, 15.2 µM (inactive); in the assay with SK-MEL-2, 18.7 µM (inactive). For the same molecule, the GI50 in the assay with SK-MEL-5 is 5.73 µM (inactive); in the assay with SN12C, 15.2 µM (inactive); in the assay with SNB-19, 20.6 µM (inactive); in the assay with SR it was 6.73 µM (inactive); in the assay with TK-10, 11.9 µM (inactive); in the assay on U-251, 17.1 µM (inactive). The GI50 in the assay on UACC-257 was 13.5 µM (inactive).

Regarding `CC(=O)Oc1ccc2c3c1[C@H]1O[C@H]1c1cccc(c1-3)[C@@H]1O[C@H]21`, the GI50 was 10.4 µM (inactive) in the assay on COLO 205; 7.83 µM (inactive) with DU-145; 5 µM in the assay on HCT-15; 1.81 µM (inactive) in the assay with LOX IMVI; 18.4 µM (inactive) with MCF7; 21.4 µM (inactive) in the assay on NCI-H226. For the same molecule, the GI50 is 4.92 µM (inactive) in the assay with NCI-H23; 1.9 µM (inactive) in the assay on NCI-H522; 13.5 µM (inactive) in the assay on PC-3; 9.55 µM (inactive) in the assay on SK-MEL-2; 4.25 µM (inactive) with SK-MEL-5; 2.69 µM (inactive) in the assay with SN12C. Also, the GI50 in the assay on SNB-19 is 15.8 µM (inactive); with SR it was 10.9 µM (inactive); in the assay on TK-10, 13.9 µM (inactive); in the assay with U-251 it was 4.99 µM (inactive); with UACC-257, 8.22 µM (inactive).

In the case of `C=CC(C)(C)C(=C)C(=O)Nc1ccccc1I`, the GI50 in the assay on CCRF-CEM is 19.3 µM (inactive); with COLO 205, > 100 µM (inactive); in the assay with DU-145 it was > 100 µM (inactive); with HCT-15, above 100 µM; in the assay on LOX IMVI, 73.6 µM (inactive); in the assay on MCF7, > 100 µM (inactive). In addition, the GI50 in the assay with NCI-H226, in the assay with NCI-H23, in the assay on NCI-H460, with PC-3, in the assay on SK-MEL-2 and in the assay with SK-MEL-5 was > 100 µM (inactive) each time. Further, the GI50 with SN12C was > 100 µM (inactive); in the assay with SNB-19 it was > 100 µM (inactive); in the assay on SR it was 86.1 µM (inactive); in the assay on U-251 it was > 100 µM (inactive); in the assay with UACC-257 it was > 100 µM (inactive).

Turning to `COc1cc(C(=O)N(C(=S)OCc2ccccn2)c2ccccc2)cc(OC)c1OC`, the GI50 was 17.8 µM (inactive) in the assay on CCRF-CEM; 53.5 µM (inactive) in the assay on COLO 205; 33.8 µM (inactive) in the assay with DU-145; 39.6 µM with HCT-15; 16.3 µM (inactive) in the assay with IGROV-1; 35 µM (inactive) with LOX IMVI. For the same molecule, the GI50 in the assay with MCF7 was 33.7 µM (inactive); in the assay on NCI-H226 it was 26.1 µM (inactive); in the assay with NCI-H23, 86.1 µM (inactive); in the assay on NCI-H460, 35.6 µM (inactive); in the assay with PC-3, 74.3 µM (inactive); in the assay on SK-MEL-2, > 100 µM (inactive). Also, the GI50 in the assay with SK-MEL-5 is 35.2 µM (inactive); in the assay with SN12C, 43 µM (inactive); with SNB-19, > 100 µM (inactive); in the assay with SR it was 8.47 µM (inactive); in the assay on TK-10, 70.8 µM (inactive); in the assay with U-251, > 100 µM (inactive). The GI50 with UACC-257 was > 100 µM (inactive).

For the molecule `Cc1nnc(N/N=C2/C(=O)Nc3ccccc32)nc1O`, the GI50 with DU-145 was > 100 µM (inactive); in the assay on HCT-15 it was above 100 µM; in the assay with IGROV-1 it was > 100 µM (inactive); in the assay on LOX IMVI, > 100 µM (inactive); with MCF7, > 100 µM (inactive); in the assay on NCI-H226, > 100 µM (inactive). For the same molecule, the GI50 with NCI-H460, in the assay on NCI-H522, in the assay with PC-3, in the assay with SK-MEL-2, in the assay on SN12C and in the assay on SNB-19 was > 100 µM (inactive) in each case. The GI50 with SR, in the assay with TK-10, in the assay on U-251 and with UACC-257 was > 100 µM (inactive) in each case.

Consider `CN(C)c1ccc(/C=c2/c3ccccc3n3c2cc(NC(=O)NCCC[N+](C)(C)C)[n+]3C)cc1`, for which the GI50 in the assay with CCRF-CEM is 0.452 µM (active); in the assay with COLO 205, > 100 µM (inactive); with DU-145, > 100 µM (inactive); in the assay on HCT-15 it was above 100 µM; in the assay with IGROV-1 it was 16.4 µM (inactive); with LOX IMVI it was 61.2 µM (inactive). The GI50 in the assay with MCF7 is 46.6 µM (inactive); with NCI-H23 it was > 100 µM (inactive); in the assay on NCI-H460, > 100 µM (inactive); in the assay with NCI-H522, 29.4 µM (inactive); with PC-3, > 100 µM (inactive); with SK-MEL-2, > 100 µM (inactive). Further, the GI50 was 47.6 µM (inactive) with SK-MEL-5; 0.432 µM (active) with SN12C; 64.1 µM (inactive) in the assay on SNB-19; 75.9 µM (inactive) in the assay with SR; > 100 µM (inactive) in the assay on TK-10; 50 µM (inactive) in the assay on U-251. Moreover, in the assay with UACC-257, the GI50 was > 100 µM (inactive).
